This is an account of results in patent US20240317721A1, “PYRAZOLYL DERIVATIVES AS INHIBITORS OF THE KRAS MUTANT PROTEIN” (NOVARTIS AG, priority 2021, published 2024).

pIC50: −log10 of the molar value.

In the experiment the target is KRasG12C (M1-K169, biotinylated on the N-terminus) (Homo sapiens (Human), UniProt P01116, G12C). Put plainly: Covalent competition assay: scintillation proximity assay (SPA) quantifying covalent modification of KRASG12C. The format is binding. The settings on record: competition with radiolabeled covalent probe (Compound B/Compound A), 2 hours incubation, 10 nM KRasG12C. The procedure, abridged: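 Scintillation proximity readout after streptavidin bead capture (30 min) of biotinylated KRasG12C(M1-K169):GDP, 10 nM final, which was covalently labelled over 2 h by 25 nM radio-probe plus 475 nM cold probe unless blocked by compound.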
Background: SPA uses beads or plates that emit light when radiolabelled molecules are held near them.
Usually pIC50 stands for −log10 of the IC50, conventionally taken in molar units. With `C=CC(=O)N1CC2(CC(n3nc(N4Cc5cnn(C)c5C4)c(-c4c(Cl)c(C)cc5[nH]ncc45)c3C)C2)C1` [Example 12, 1-(6-(4-(5-chloro-6-methyl-1H-indazol-4-yl)-5-methyl-3-(1-methyl-4,6-dihydropyrrolo[3,4-c]pyrazol-5(1H)-yl)-1H-pyrazol-1-yl)-2-azaspiro[3.3]heptan-2-yl)prop-2-en-1-one], the pIC50 was 5.85. The value for `C=CC(=O)N1CC2(CC(n3nc(N4CCn5nccc5C4(C)C)c(-c4c(Cl)c(C)cc5[nH]ncc45)c3C)C2)C1` (single isomer, unassigned) [Example 101a, 1-(6-(4-(5-chloro-6-methyl-1H-indazol-4-yl)-3-(4,4-dimethyl-6,7-dihydropyrazolo[1,5-a]pyrazin-5(4H)-yl)-5-methyl-1H-pyrazol-1-yl)-2-azaspiro[3.3]heptan-2-yl)prop-2-en-1-one] was under 4.30; that for `C=CC(=O)N1CC2(CC(n3nc(N4CCN(C5COC5)CC45CCOC5)c(-c4c(Cl)c(C)cc5[nH]ncc45)c3C)C2)C1` (single isomer, unassigned) [Example 142a, 1-(6-(4-(5-chloro-6-methyl-1H-indazol-4-yl)-5-methyl-3-(9-(oxetan-3-yl)-2-oxa-6,9-diazaspiro[4.5]decan-6-yl)-1H-pyrazol-1-yl)-2-azaspiro[3.3]heptan-2-yl)prop-2-en-1-one] was 6.69; that for `C=CC(=O)N1CC2(CC(n3nc(N4CCN(CC(C)(C)O)C[C@]4(C)CC)c(-c4c(Cl)c(C)cc5[nH]ncc45)c3C)C2)C1` (single isomer, unassigned) [Example 161a] was 6.04. The value for `C=CC(=O)N1CC2(CC(n3nc(N4CCC(CN5CC6COCC6C5)CC4(C)C)c(-c4c(Cl)c(Cl)cc5[nH]ncc45)c3C)C2)C1` (single isomer, unassigned) [Example 226b, 1-(6-(4-(5,6-dichloro-1H-indazol-4-yl)-3-(2,2-dimethyl-4-((tetrahydro-1H-furo[3,4-c]pyrrol-5(3H)-yl)methyl)piperidin-1-yl)-5-methyl-1H-pyrazol-1-yl)-2-azaspiro[3.3]heptan-2-yl)prop-2-en-1-one] was 5.96.

With `C=CC(=O)N1CC2(CC(n3nc(N4CC[C@@H](CN5CCOC6(C5)CN(C(C)=O)C6)CC4(C)C)c(-c4c(Cl)c(Cl)cc5[nH]ncc45)c3C)C2)C1` (single isomer, unassigned) [Example 311b], the pIC50 was 7.74. For `C=CC(=O)N1CC2(CC(n3nc(N4CCN(CC(C)(C)O)C[C@@]4(C)C(F)F)c(-c4c(Cl)c(C)cc5[nH]ncc45)c3C)C2)C1` (single isomer, unassigned) [Example 166b] the value was 7.29; for `C=CC(=O)N1CC2(CC(n3nc(N4CCC(CN5CCN(C)C(=O)C5)CC4(C)C)c(-c4c(Cl)c(Cl)cc5[nH]ncc45)c3C)C2)C1` (single isomer, unassigned) [Example 239b, 4-((1-(1-(2-acryloyl-2-azaspiro[3.3]heptan-6-yl)-4-(5,6-dichloro-1H-indazol-4-yl)-5-methyl-1H-pyrazol-3-yl)-2,2-dimethylpiperidin-4-yl)methyl)-1-methylpiperazin-2-one], 8.05. The value for `C=CC(=O)N1CC2(CC(n3nc(N4CCC5C(=O)N(C)CC5C4)c(-c4c(Cl)c(C)cc5[nH]ncc45)c3C)C2)C1` (stereo not drawn) [Example 16, (3aS*,7aS*)-5-(1-(2-acryloyl-2-azaspiro[3.3]heptan-6-yl)-4-(5-chloro-6-methyl-1H-indazol-4-yl)-5-methyl-1H-pyrazol-3-yl)-2-methyloctahydro-1H-pyrrolo[3,4-c]pyridin-1-one] was 6.00. For `C=CC(=O)N1CC2(CC(n3nc(N4CCN(C5COC5)CC45CCOC5)c(-c4c(Cl)c(C)cc5[nH]ncc45)c3C)C2)C1` (centres unmarked) [Example 142b, 1-(6-(4-(5-chloro-6-methyl-1H-indazol-4-yl)-5-methyl-3-(9-(oxetan-3-yl)-2-oxa-6,9-diazaspiro[4.5]decan-6-yl)-1H-pyrazol-1-yl)-2-azaspiro[3.3]heptan-2-yl)prop-2-en-1-one] the value was under 5.30; for `C=CC(=O)N1CC2(CC(n3nc(N4C5CCC4COC5)c(-c4c(Cl)c(C)cc5[nH]ncc45)c3C)C2)C1` (single isomer, unassigned) [Example 112b], 6.77; for `C=CC(=O)N1CC2(CC(n3nc(N4CCN(CCOC(F)F)CC45CCC5)c(-c4c(Cl)c(C)cc5[nH]ncc45)c3C)C2)C1` (single isomer, unassigned) [Example 183b, 1-(6-(4-(5-chloro-6-methyl-1H-indazol-4-yl)-3-(8-(2-(difluoromethoxy)ethyl)-5,8-diazaspiro[3.5]nonan-5-yl)-5-methyl-1H-pyrazol-1-yl)-2-azaspiro[3.3]heptan-2-yl)prop-2-en-1-one], 7.57. For the compound `C=CC(=O)N1CC2(CC(n3nc(N4CCN(C(COC)COC)C[C@]4(C)CC)c(-c4c(Cl)c(C)cc5[nH]ncc45)c3C)C2)C1` (single isomer, unassigned) [Example 187a], the pIC50 was 5.38. For `C=CC(=O)N1CC2(CC(n3nc(N4CC[C@@H](CN5CCN(C6COC6)CC5)CC4(C)C)c(-c4c(Cl)ccc5[nH]ncc45)c3C)C2)C1` (single isomer, unassigned) [Example 255a] the value was 5.48; for `C=CC(=O)N1CC2(CC(n3nc(N4CC[C@@H](CN5CCCC56CN(C(C)=O)C6)CC4(C)C)c(-c4c(Cl)c(Cl)cc5[nH]ncc45)c3C)C2)C1` (single isomer, unassigned) [Example 276b], over 8.30; for `C=CC(=O)N1CC2(CC(n3nc(N4CCN(CC(F)(F)F)CC4(C)C)c(-c4c(Cl)c(C)cc5[nH]ncc45)c3C)C2)C1` (single isomer, unassigned) [Example 68a, 1-(6-(4-(5-chloro-6-methyl-1H-indazol-4-yl)-3-(2,2-dimethyl-4-(2,2,2-trifluoroethyl)piperazin-1-yl)-5-methyl-1H-pyrazol-1-yl)-2-azaspiro[3.3]heptan-2-yl)prop-2-en-1-one], under 4.82. For `C=CC(=O)N1CC2(CC(n3nc(N4CCC(CN5CCOCC5)C4(C)C)c(-c4c(Cl)c(Cl)cc5[nH]ncc45)c3C)C2)C1` (single isomer, unassigned) [Example 219b, 1-(6-(4-(5,6-dichloro-1H-indazol-4-yl)-3-(2,2-dimethyl-3-(morpholinomethyl)pyrrolidin-1-yl)-5-methyl-1H-pyrazol-1-yl)-2-azaspiro[3.3]heptan-2-yl)prop-2-en-1-one] the value was 7.38. The value for `C=CC(=O)N1CC2(CC(n3nc(N4CCN(C(=O)N(C)C)CC4(C)C)c(-c4c(Cl)c(C)cc5[nH]ncc45)c3C)C2)C1` (single isomer, unassigned) [Example 129b, 4-(1-(2-acryloyl-2-azaspiro[3.3]heptan-6-yl)-4-(5-chloro-6-methyl-1H-indazol-4-yl)-5-methyl-1H-pyrazol-3-yl)-N,N,3,3-tetramethylpiperazine-1-carboxamide] was 5.92; that for `C=CC(=O)N1CC2(CC(n3nc(N4CCC(N(C)C(=O)COC)CC4(C)C)c(-c4c(Cl)c(C)cc5[nH]ncc45)c3C)C2)C1` (single isomer, unassigned) [Example 97a, N-(1-(1-(2-acryloyl-2-azaspiro[3.3]heptan-6-yl)-4-(5-chloro-6-methyl-1H-indazol-4-yl)-5-methyl-1H-pyrazol-3-yl)-2,2-dimethylpiperidin-4-yl)-2-methoxy-N-methylacetamide] was 6.52; that for `C=CC(=O)N1CC2(CC(n3nc(N4CCn5ccnc5C4)c(-c4c(Cl)c(C)cc5[nH]ncc45)c3C)C2)C1` (single isomer, unassigned) [Example 19b, 1-(6-(4-(5-chloro-6-methyl-1H-indazol-4-yl)-3-(5,6-dihydroimidazo[1,2-a]pyrazin-7(8H)-yl)-5-methyl-1H-pyrazol-1-yl)-2-azaspiro[3.3]heptan-2-yl)prop-2-en-1-one] was 4.46. For `C=CC(=O)N1CC2(CC(n3nc(N4CCN(C5CCOCC5)C[C@]4(C)COC)c(-c4c(Cl)c(C)cc5[nH]nc(N)c45)c3C)C2)C1` (single isomer, unassigned) [Example 90b], the pIC50 was 6.25. With `C=CC(=O)N1CC2(CC(n3nc(N4CC[C@@H](CN5CCC[C@H]5C(=O)N(C)C)CC4(C)C)c(-c4c(Cl)c(Cl)cc5[nH]ncc45)c3C)C2)C1` (single isomer, unassigned) [Example 313a], the negative logarithm of the IC50 (pIC50) was 6.39.

In the case of `C=CC(=O)N1CC2(CC(n3nc(N4CCC5C(CC(=O)N5C)C4)c(-c4c(Cl)c(C)cc5[nH]ncc45)c3C)C2)C1` (single isomer, unassigned) [Example 38a, 5-(1-(2-acryloyl-2-azaspiro[3.3]heptan-6-yl)-4-(5-chloro-6-methyl-1H-indazol-4-yl)-5-methyl-1H-pyrazol-3-yl)-1-methyloctahydro-2H-pyrrolo[3,2-c]pyridin-2-one], the pIC50 was under 5.30. The value for `C=CC(=O)N1CC2(CC(n3nc(N4C[C@H](C)N(C5COC5)CC4(C)C)c(-c4c(Cl)c(Cl)cc5[nH]ncc45)c3C)C2)C1` (single isomer, unassigned) [Example 104a] was 5.35; that for `C=CC(=O)N1CC2(CC(n3nc(N4[C@H]5CC[C@@H]4CN(C)CC5)c(-c4c(Cl)c(C)cc5[nH]ncc45)c3C)C2)C1` [Example 64, 1-(6-(4-(5-chloro-6-methyl-1H-indazol-4-yl)-5-methyl-3-((1R,6S)-3-methyl-3,9-diazabicyclo[4.2.1]nonan-9-yl)-1H-pyrazol-1-yl)-2-azaspiro[3.3]heptan-2-yl)prop-2-en-1-one] was 6.28. For `C=CC(=O)N1CC2(CC(n3nc(N4CCn5nccc5C4C)c(-c4c(Cl)c(C)cc5[nH]ncc45)c3C)C2)C1` (single isomer, unassigned) [Example 42b, 1-(6-(4-(5-chloro-6-methyl-1H-indazol-4-yl)-5-methyl-3-(4-methyl-6,7-dihydropyrazolo[1,5-a]pyrazin-5(4H)-yl)-1H-pyrazol-1-yl)-2-azaspiro[3.3]heptan-2-yl)prop-2-en-1-one] the value was 6.73.
